# Reference: patent US20260297070A1, “CYCLIC [COMPOUND LEFT OUT] WRN INHIBITORS” (Nimbus Wadjet, Inc., priority 2023, published 2026)
# pIC50: −log10 of the molar value.
# Target: T1, human Werner helicase (WRN-BV08, Uniprot Q14191, amino acids 517-1235 with L1074F point mutation) (Homo sapiens, UniProt Q14191, L1074F)
# T1 construct: Uniprot Q14191, amino acids 517-1235 with L1074F point mutation; TEV-cleavable 8×His (C, cleaved yes); made in house; host or cells: Sf9 insect cells (baculovirus)
# T1 sequence (Q14191 with tags, fused parts or gaps L1074F limits assumed): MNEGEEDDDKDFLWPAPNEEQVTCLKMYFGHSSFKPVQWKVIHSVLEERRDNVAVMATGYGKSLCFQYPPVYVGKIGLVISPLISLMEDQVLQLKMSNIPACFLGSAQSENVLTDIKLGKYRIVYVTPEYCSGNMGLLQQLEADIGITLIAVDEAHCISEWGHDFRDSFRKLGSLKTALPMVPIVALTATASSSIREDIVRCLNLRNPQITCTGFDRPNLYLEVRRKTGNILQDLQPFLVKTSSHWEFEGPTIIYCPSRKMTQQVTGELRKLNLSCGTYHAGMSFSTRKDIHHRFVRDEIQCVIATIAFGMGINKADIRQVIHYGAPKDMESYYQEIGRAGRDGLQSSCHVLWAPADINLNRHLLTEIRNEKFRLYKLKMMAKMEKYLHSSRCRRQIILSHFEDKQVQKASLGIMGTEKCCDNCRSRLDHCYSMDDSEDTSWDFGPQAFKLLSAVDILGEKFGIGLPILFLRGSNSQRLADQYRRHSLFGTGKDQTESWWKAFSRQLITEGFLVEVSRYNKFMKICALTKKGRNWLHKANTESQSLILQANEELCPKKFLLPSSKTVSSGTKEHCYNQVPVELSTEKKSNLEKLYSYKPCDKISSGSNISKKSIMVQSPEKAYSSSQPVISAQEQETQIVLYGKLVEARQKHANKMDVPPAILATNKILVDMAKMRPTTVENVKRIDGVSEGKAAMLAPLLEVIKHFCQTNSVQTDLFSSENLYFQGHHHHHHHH
# Assay: WRN (BV08) ADP-Glo Assay
# Type: biochemical
# Conditions: 0.15 nM WRN, 5 μM ATP, 0.1 nM DNA duplex, 15 min preincubation, 60 min at 25° C., pH 7.5, 1% DMSO; read-out: ADP-Glo_hWRN_IC50
# Method in brief: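 Helicase ATPase activity is measured at 25 °C over 60 min using 0.15 nM enzyme, 5 μM ATP and 0.1 nM DNA duplex, final DMSO 1%. ADP production is detected by luminescence, with IC50 derived by curve fitting.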
row,SMILES,pIC50
1,"O=C(Cc1ccc(S(F)(F)(F)(F)F)cc1)N(Cc1ccnc(OC(F)(F)F)c1)C1C=CS(=O)(=O)C1 (stereo not shown) [I-725, N-(1,1-dioxo-2,3-dihydro-1lambda6-thiophen-3-yl)-2-[4-(pentafluoro-lambda6-sulfanyl)phenyl]-N-{[2-(trifluoromethoxy)pyridin-4-yl]methyl}acetamide]",5.30 to 6.30
2,"O=C(Cn1cc(-c2ccc(F)c(F)c2)cn1)N(Cc1nc(C2(F)CC2)cs1)C1C=CS(=O)(=O)C1 (stereo not shown) [I-726, 2-[4-(3,4-difluorophenyl)-1H-pyrazol-1-yl]-N-(1,1-dioxo-2,3-dihydro-1lambda6-thiophen-3-yl)-N-{[4-(1-fluorocyclopropyl)-1,3-thiazol-2-yl]methyl}acetamide]",> 6.30
3,"COc1cc(CN(C(=O)C(c2ccc(-c3ccc(F)c(F)c3)cc2F)n2ncnn2)[C@@H]2C=CS(=O)(=O)C2)ccn1 (stereo partly drawn) [I-731, N-[(3R)-1,1-dioxo-2,3-dihydro-1lambda6-thiophen-3-yl]-N-[(2-methoxypyridin-4-yl)methyl]-2-(2H-1,2,3,4-tetrazol-2-yl)-2-{3,3′,4′-trifluoro-[1,1′-biphenyl]-4-yl}acetamide]",< 4.30
4,"COc1cc(CN(C(=O)C(c2ccc(-c3ccc(F)c(F)c3)cc2F)n2cnnn2)[C@@H]2C=CS(=O)(=O)C2)ccn1 (stereo partly drawn) [I-734, N-[(3R)-1,1-dioxo-2,3-dihydro-1lambda6-thiophen-3-yl]-N-[(2-methoxypyridin-4-yl)methyl]-2-(1H-1,2,3,4-tetrazol-1-yl)-2-{3,3′,4′-trifluoro-[1,1′-biphenyl]-4-yl}acetamide]",< 4.30
5,"COc1cc(CN(C(=O)C(c2ccc(-c3ccc(F)c(F)c3)cc2F)n2ncc3ccncc32)[C@@H]2C=CS(=O)(=O)C2)ccn1 (stereo partly drawn) [I-751, N-[(3R)-1,1-dioxo-2,3-dihydro-1lambda6-thiophen-3-yl]-N-[(2-methoxypyridin-4-yl)methyl]-2-{1H-pyrazolo[3,4-c]pyridin-1-yl}-2-{3,3′,4′-trifluoro-[1,1′-biphenyl]-4-yl}acetamide]",4.30 to 5.00
6,"O=C(Cn1cc(-c2ccc(F)cc2)cn1)N(Cc1ccnc(OC(F)(F)F)c1)C1C=CS(=O)(=O)C1 (stereo not shown) [I-753, N-(1,1-dioxo-2,3-dihydro-1lambda6-thiophen-3-yl)-2-[4-(4-fluorophenyl)-1H-pyrazol-1-yl]-N-{[2-(trifluoromethoxy)pyridin-4-yl]methyl}acetamide]",5.30 to 6.30
7,"Cc1sc(CN(C(=O)Cc2ccc(-c3ccc(F)c(F)c3)cc2F)C2C=CS(=O)(=O)C2)nc1C1CC1 (stereo not shown) [I-754, N-[(4-cyclopropyl-5-methyl-1,3-thiazol-2-yl)methyl]-N-(1,1-dioxo-2,3-dihydro-1lambda6-thiophen-3-yl)-2-{3,3′,4′-trifluoro-[1,1′-biphenyl]-4-yl}acetamide]",5.30 to 6.30
8,"COc1cc(CN(C(=O)C(c2ccc(-c3ccc(F)c(F)c3)cc2F)n2cc(C(C)(C)O)cn2)[C@@H]2C=CS(=O)(=O)C2)ccn1 (stereo partly drawn) [I-758, N-[(3R)-1,1-dioxo-2,3-dihydro-1lambda6-thiophen-3-yl]-2-[4-(2-hydroxypropan-2-yl)-1H-pyrazol-1-yl]-N-[(2-methoxypyridin-4-yl)methyl]-2-{3,3′,4′-trifluoro-[1,1′-biphenyl]-4-yl}acetamide]",5.30 to 6.30
9,"O=C(Cn1cc(-c2ccc(F)c(F)c2)cn1)N(Cc1ccnc(N2CCOCC2)c1)C1C=CS(=O)(=O)C1 (stereo not shown) [I-759, 2-[4-(3,4-difluorophenyl)-1H-pyrazol-1-yl]-N-(1,1-dioxo-2,3-dihydro-1lambda6-thiophen-3-yl)-N-{[2-(morpholin-4-yl)pyridin-4-yl]methyl}acetamide]",5.30 to 6.30
10,"O=C(Cn1cc(-c2ccc(F)c(F)c2)cn1)N(Cc1ccnc(OCCN2CCOCC2)c1)C1C=CS(=O)(=O)C1 (stereo not shown) [I-761, 2-[4-(3,4-difluorophenyl)-1H-pyrazol-1-yl]-N-(1,1-dioxo-2,3-dihydro-1lambda6-thiophen-3-yl)-N-({2-[2-(morpholin-4-yl)ethoxy]pyridin-4-yl}methyl)acetamide]",> 6.30
11,"COc1cc(CN(C(=O)Cn2nc3ccc(C(F)(F)F)cc3c2C)[C@@H]2C=CS(=O)(=O)C2)ccn1 [I-766, N-[(3R)-1,1-dioxo-2,3-dihydro-1lambda6-thiophen-3-yl]-N-[(2-methoxypyridin-4-yl)methyl]-2-[3-methyl-5-(trifluoromethyl)-2H-indazol-2-yl]acetamide]",5.00 to 5.30

# Results, then the compound that gave them:
row,pIC50,SMILES
1,5.30 to 6.30,"N#CC1=CC(N(Cc2ccccc2)C(=O)Cc2ccc(-c3ccc(F)cc3)cc2)CS1(=O)=O (stereo not shown) [I-728, N-benzyl-N-(5-cyano-1,1-dioxo-2,3-dihydro-1lambda6-thiophen-3-yl)-2-{4′-fluoro-[1,1′-biphenyl]-4-yl}acetamide]"
2,< 4.30,"O=C(Cc1ccc(S(F)(F)(F)(F)F)cc1)N(Cc1nc(C(F)F)cs1)C1C=CS(=O)(=O)C1 (stereo not shown) [I-729, N-{[4-(difluoromethyl)-1,3-thiazol-2-yl]methyl}-N-(1,1-dioxo-2,3-dihydro-1lambda6-thiophen-3-yl)-2-[4-(pentafluoro-lambda6-sulfanyl)phenyl]acetamide]"
3,> 6.30,"COc1cc(CN(C(=O)C(c2ccc(-c3ccc(F)c(F)c3)cc2F)n2ccnn2)[C@@H]2C=CS(=O)(=O)C2)ccn1 (stereo partly drawn) [I-732, N-[(3R)-1,1-dioxo-2,3-dihydro-1lambda6-thiophen-3-yl]-N-[(2-methoxypyridin-4-yl)methyl]-2-(1H-1,2,3-triazol-1-yl)-2-{3,3′,4′-trifluoro-[1,1′-biphenyl]-4-yl}acetamide]"
4,> 6.30,"COc1cc(CN(C(=O)C(c2ccc(-c3ccc(F)c(F)c3)cc2F)n2nccn2)[C@@H]2C=CS(=O)(=O)C2)ccn1 (stereo partly drawn) [I-733, N-[(3R)-1,1-dioxo-2,3-dihydro-1lambda6-thiophen-3-yl]-N-[(2-methoxypyridin-4-yl)methyl]-2-(2H-1,2,3-triazol-2-yl)-2-{3,3′,4′-trifluoro-[1,1′-biphenyl]-4-yl}acetamide]"
5,> 6.30,"COc1cc(CN(C(=O)Cn2ncc(-c3ccc(F)c(F)c3)c2C)[C@@H]2C=CS(=O)(=O)C2)ccn1 [I-739, 2-[4-(3,4-difluorophenyl)-5-methyl-1H-pyrazol-1-yl]-N-[(3R)-1,1-dioxo-2,3-dihydro-1lambda6-thiophen-3-yl]-N-[(2-methoxypyridin-4-yl)methyl]acetamide]"
6,5.30 to 6.30,"COc1cc(CN(C(=O)C(OCCC#N)c2ccc(-c3ccc(F)c(F)c3)cc2F)[C@@H]2C=CS(=O)(=O)C2)ccn1 (stereo partly drawn) [I-744, 2-(2-cyanoethoxy)-N-[(3R)-1,1-dioxo-2,3-dihydro-1lambda6-thiophen-3-yl]-N-[(2-methoxypyridin-4-yl)methyl]-2-{3,3′,4′-trifluoro-[1,1′-biphenyl]-4-yl}acetamide]"
7,5.30 to 6.30,"COc1cc(CN(C(=O)C(OCc2cnn(C)c2)c2ccc(-c3ccc(F)c(F)c3)cc2F)[C@@H]2C=CS(=O)(=O)C2)ccn1 (stereo partly drawn) [I-745, N-[(3R)-1,1-dioxo-2,3-dihydro-1lambda6-thiophen-3-yl]-N-[(2-methoxypyridin-4-yl)methyl]-2-[(1-methyl-1H-pyrazol-4-yl)methoxy]-2-{3,3′,4′-trifluoro-[1,1′-biphenyl]-4-yl}acetamide]"
8,> 6.30,"COc1cnn(C(C(=O)N(Cc2ccnc(OC)c2)[C@@H]2C=CS(=O)(=O)C2)c2ccc(-c3ccc(F)c(F)c3)cc2F)c1 (stereo partly drawn) [I-748, N-[(3R)-1,1-dioxo-2,3-dihydro-1lambda6-thiophen-3-yl]-2-(4-methoxy-1H-pyrazol-1-yl)-N-[(2-methoxypyridin-4-yl)methyl]-2-{3,3′,4′-trifluoro-[1,1′-biphenyl]-4-yl}acetamide]"
9,5.00 to 5.30,"COc1cc(CN(C(=O)C(OC2COC2)c2ccc(-c3ccc(F)c(F)c3)cc2F)[C@@H]2C=CS(=O)(=O)C2)ccn1 (stereo partly drawn) [I-752, N-[(3R)-1,1-dioxo-2,3-dihydro-1lambda6-thiophen-3-yl]-N-[(2-methoxypyridin-4-yl)methyl]-2-(oxetan-3-yloxy)-2-{3,3′,4′-trifluoro-[1,1′-biphenyl]-4-yl}acetamide]"
10,< 4.30,"COc1ccc2c(c1)CC(C(=O)N(Cc1ccncc1)C1C=CS(=O)(=O)C1)CO2 (stereo not shown) [I-756, N-(1,1-dioxo-2,3-dihydro-1lambda6-thiophen-3-yl)-6-methoxy-N-[(pyridin-4-yl)methyl]-3,4-dihydro-2H-1-benzopyran-3-carboxamide]"
11,< 4.30,"O=C(Cc1ccc(S(F)(F)(F)(F)F)cc1)N(Cc1nn[nH]n1)C1C=CS(=O)(=O)C1 (stereo not shown) [I-757, N-(1,1-dioxo-2,3-dihydro-1lambda6-thiophen-3-yl)-2-[4-(pentafluoro-lambda6-sulfanyl)phenyl]-N-[(2H-1,2,3,4-tetrazol-5-yl)methyl]acetamide]"
12,> 6.30,"O=C(Cn1cc(-c2ccc(F)c(F)c2)cn1)N(Cc1ccnc(N2CCC2)c1)C1C=CS(=O)(=O)C1 (stereo not shown) [I-760, N-{[2-(azetidin-1-yl)pyridin-4-yl]methyl}-2-[4-(3,4-difluorophenyl)-1H-pyrazol-1-yl]-N-(1,1-dioxo-2,3-dihydro-1lambda6-thiophen-3-yl)acetamide]"
13,5.30 to 6.30,"COc1ccc(CN(C(=O)Cn2cc(-c3ccc(F)c(F)c3)cn2)C2C=CS(=O)(=O)C2)cn1 (stereo not shown) [I-762, 2-[4-(3,4-difluorophenyl)-1H-pyrazol-1-yl]-N-(1,1-dioxo-2,3-dihydro-1lambda6-thiophen-3-yl)-N-[(6-methoxypyridin-3-yl)methyl]acetamide]"
14,> 6.30,"COc1cc(CN(C(=O)Cn2cc(-c3cc(F)c(F)c(F)c3)cn2)[C@@H]2C=CS(=O)(=O)C2)ccn1 [I-764, N-[(3R)-1,1-dioxo-2,3-dihydro-1lambda6-thiophen-3-yl]-N-[(2-methoxypyridin-4-yl)methyl]-2-[4-(3,4,5-trifluorophenyl)-1H-pyrazol-1-yl]acetamide]"
